Test results from patent US9745320B2, “Five-and-six-membered heterocyclic compound, and preparation method, pharmaceutical composition and use thereof” (SHANGHAI CHEMEXPLORER CO., LTD., priority 2013, dated 2017).

Columns and labels:
Assay type in all cases: biochemical
JAK1 = JAK1 (Homo sapiens, UniProt P23458); test: JAK 1 enzymatic inhibitory activity IC50 assay (Caliper conversion rate); conditions: Km ATP, 28° C., 1 hour
Outline: (§1)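 Human JAK1 or JAK2 enzyme was preincubated with graded compound (2% DMSO) in HEPES pH 7.5/Brij-35/DTT buffer (JAK1 also with Triton), then peptide substrate, 10 mM MgCl2 and ATP at Km were added. Reactions ran 1 hour at 28° C; Caliper conversion rate gave inhibition, averaged over two tests, for IC50.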

JAK2 = JAK2 (Homo sapiens, UniProt O60674); test: JAK 2 enzymatic inhibitory activity IC50 assay (Caliper conversion rate); conditions: Km ATP, 28° C., 1 hour
Chain of JAK2 (O60674 whole entry, species assumed): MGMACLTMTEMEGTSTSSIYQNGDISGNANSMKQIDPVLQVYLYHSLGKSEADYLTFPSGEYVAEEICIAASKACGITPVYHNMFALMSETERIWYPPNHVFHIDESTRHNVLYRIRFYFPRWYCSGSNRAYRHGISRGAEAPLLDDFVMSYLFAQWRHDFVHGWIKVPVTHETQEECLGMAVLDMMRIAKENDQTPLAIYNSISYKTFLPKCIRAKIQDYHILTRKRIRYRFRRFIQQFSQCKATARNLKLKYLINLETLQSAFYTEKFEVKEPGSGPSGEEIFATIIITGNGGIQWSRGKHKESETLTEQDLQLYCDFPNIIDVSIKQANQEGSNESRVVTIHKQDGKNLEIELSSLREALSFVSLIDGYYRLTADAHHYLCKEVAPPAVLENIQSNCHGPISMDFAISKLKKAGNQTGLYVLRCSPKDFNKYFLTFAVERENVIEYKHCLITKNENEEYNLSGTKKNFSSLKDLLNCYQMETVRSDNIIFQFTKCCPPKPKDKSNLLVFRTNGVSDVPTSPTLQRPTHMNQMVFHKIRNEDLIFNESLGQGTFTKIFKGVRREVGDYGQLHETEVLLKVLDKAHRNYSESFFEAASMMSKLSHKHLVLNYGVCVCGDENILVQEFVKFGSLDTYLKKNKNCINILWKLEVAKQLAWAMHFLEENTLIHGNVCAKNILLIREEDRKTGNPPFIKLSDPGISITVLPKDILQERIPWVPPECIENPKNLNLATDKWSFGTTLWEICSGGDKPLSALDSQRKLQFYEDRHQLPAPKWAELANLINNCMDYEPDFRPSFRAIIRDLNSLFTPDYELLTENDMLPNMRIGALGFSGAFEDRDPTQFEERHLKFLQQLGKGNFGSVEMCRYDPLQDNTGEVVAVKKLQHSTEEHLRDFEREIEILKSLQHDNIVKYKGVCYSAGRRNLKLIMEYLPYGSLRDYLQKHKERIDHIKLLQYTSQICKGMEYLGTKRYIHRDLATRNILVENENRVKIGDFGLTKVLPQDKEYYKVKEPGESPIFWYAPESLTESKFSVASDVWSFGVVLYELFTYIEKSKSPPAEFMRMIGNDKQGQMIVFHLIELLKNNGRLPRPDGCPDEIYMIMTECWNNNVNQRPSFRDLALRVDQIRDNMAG
Outline: as §1

JAK3 = target: T1, JAK3 (Homo sapiens, UniProt P52333); test: JAK 3 enzymatic inhibitory activity IC50 assay (Caliper conversion rate); conditions: Km ATP, 28° C., 1 hour; read-out: JAK 3 enzymatic inhibitory activity IC50
T1 sequence (P52333 1-1124): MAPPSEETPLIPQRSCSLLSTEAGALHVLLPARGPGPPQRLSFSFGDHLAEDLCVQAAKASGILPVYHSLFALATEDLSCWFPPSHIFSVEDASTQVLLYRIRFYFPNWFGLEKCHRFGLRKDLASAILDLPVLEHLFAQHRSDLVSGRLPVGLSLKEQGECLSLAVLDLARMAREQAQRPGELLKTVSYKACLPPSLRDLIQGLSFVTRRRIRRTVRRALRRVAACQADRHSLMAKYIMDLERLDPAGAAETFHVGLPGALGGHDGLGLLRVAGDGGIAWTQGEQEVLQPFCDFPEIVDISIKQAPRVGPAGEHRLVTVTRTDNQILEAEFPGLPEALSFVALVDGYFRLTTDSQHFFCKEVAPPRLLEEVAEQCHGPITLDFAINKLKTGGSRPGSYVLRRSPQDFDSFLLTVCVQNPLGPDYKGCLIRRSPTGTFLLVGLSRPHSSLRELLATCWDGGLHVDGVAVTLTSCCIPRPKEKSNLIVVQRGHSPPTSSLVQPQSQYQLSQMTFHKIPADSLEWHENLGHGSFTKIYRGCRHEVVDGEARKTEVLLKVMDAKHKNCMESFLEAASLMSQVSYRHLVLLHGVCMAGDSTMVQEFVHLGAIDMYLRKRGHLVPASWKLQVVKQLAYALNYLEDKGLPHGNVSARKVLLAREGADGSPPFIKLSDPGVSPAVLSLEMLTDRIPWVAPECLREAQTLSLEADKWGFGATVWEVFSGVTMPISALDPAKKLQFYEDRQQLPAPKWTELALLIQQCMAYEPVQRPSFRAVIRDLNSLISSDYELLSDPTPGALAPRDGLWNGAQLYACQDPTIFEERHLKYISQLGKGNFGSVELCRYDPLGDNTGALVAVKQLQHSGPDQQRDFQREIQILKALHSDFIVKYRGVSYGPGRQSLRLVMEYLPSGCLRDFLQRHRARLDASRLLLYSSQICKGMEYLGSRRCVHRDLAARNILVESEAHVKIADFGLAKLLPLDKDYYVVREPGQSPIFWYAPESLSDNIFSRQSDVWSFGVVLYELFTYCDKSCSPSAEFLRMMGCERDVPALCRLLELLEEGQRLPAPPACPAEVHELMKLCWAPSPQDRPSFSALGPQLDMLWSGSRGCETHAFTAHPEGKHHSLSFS

Chain of JAK1 (P23458 whole entry, species assumed): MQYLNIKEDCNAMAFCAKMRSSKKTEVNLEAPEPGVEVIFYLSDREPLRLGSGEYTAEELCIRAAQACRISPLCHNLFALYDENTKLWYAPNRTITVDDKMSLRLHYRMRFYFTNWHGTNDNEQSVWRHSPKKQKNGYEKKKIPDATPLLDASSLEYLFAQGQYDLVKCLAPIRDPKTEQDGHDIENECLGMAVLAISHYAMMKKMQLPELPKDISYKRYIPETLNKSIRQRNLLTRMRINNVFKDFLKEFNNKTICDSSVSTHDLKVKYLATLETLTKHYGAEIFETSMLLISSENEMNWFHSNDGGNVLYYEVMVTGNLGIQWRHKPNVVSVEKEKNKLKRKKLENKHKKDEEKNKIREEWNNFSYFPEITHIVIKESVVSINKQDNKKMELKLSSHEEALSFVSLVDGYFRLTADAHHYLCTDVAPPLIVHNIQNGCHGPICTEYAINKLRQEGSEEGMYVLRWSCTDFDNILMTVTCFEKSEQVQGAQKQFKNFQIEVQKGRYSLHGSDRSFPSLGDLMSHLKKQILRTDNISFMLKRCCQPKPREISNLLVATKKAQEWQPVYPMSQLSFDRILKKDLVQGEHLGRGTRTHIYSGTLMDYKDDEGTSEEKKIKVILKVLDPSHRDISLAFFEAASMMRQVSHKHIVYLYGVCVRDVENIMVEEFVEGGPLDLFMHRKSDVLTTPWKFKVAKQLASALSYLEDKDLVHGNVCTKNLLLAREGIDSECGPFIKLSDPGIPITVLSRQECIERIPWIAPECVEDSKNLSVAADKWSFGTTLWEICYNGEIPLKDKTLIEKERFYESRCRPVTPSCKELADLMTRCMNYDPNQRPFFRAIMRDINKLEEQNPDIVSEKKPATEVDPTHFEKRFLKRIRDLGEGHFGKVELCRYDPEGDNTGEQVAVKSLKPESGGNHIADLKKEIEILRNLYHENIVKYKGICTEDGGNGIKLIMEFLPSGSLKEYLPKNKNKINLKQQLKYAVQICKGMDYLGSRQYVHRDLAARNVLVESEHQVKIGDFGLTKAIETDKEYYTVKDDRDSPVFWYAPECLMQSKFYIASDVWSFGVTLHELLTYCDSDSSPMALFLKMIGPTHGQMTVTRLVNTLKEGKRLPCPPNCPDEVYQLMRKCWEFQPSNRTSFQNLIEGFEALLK

| Compound | IC50 (JAK1) [nM] | IC50 (JAK2) [nM] | IC50 (JAK3) [nM] |
| --- | --- | --- | --- |
| CCS(=O)(=O)N1CC(CC#N)(n2cc(-c3nc(Nc4ccnnc4)nc4ccsc34)cn2)C1 [Compound T-47, 2-(1-(Ethylsulfonyl)-3-(4-(2-(pyridazin-4-ylamino)thieno[3,2-d]pyrimidin-4-yl)-1H-pyrazol-1-yl)azetidin-3-yl)acetonitrile] | 500 to 1000 | 500 to 1000 | > 1000 |
| CCS(=O)(=O)N1CC(CC#N)(n2cc(-c3nc(Nc4ccccc4)nc4ccsc34)cn2)C1 [Compound T-05, 2-(1-(Ethylsulfonyl)-3-(4-(2-(phenylamino)thieno[3,2-d]pyrimidin-4-yl)-1H-pyrazol-1-yl)azetidin-3-yl)acetonitrile] | 50 to 500 | < 50 | 50 to 500 |
| CCS(=O)(=O)N1CC(CC#N)(n2cc(-c3nc(Nc4ccc(S(C)(=O)=O)cc4)nc4sccc34)cn2)C1 [Compound T-18, 2-(1-(Ethylsulfonyl)-3-(4-(2-((4-(methylsulfonyl)phenyl)amino)thieno[2,3-d]pyrimidin-4-yl)-1H-pyrazol-1-yl)azetidin-3-yl)acetonitrile] | 50 to 500 | < 50 | 500 to 1000 |
| CCS(=O)(=O)N1CC(CC#N)(n2cc(-c3nc(Nc4ccc(OCCN5CCCC5)cc4)nc4ccsc34)cn2)C1 [Compound T-09, 2-(1-(Ethylsulfonyl)-3-(4-(2-((4-(2-(pyrrolidin-1-yl)ethoxy)phenyl)amino)thieno[3,2-d]pyrimidin-4-yl)-1H-pyrazol-1-yl)azetidin-3-yl)acetonitrile] | 50 to 500 | < 50 | 50 to 500 |
| CCS(=O)(=O)N1CC(CC#N)(n2cc(-c3nc(Nc4cnn(C)c4)nc4cc(Cl)sc34)cn2)C1 [Compound T-68, 2-(3-(4-(6-Chloro-2-((1-methyl-1H-pyrazol-4-yl)amino)thieno[3,2-d]pyrimidin-4-yl)-1H-pyrazol-1-yl)-1-(ethylsulfonyl)azetidin-3-yl)acetonitrile] | > 1000 | 50 to 500 | > 1000 |
| CCS(=O)(=O)N1CC(CC#N)(n2cc(-c3nc(Nc4ccccc4)nc4cc(C)sc34)cn2)C1 [Compound T-23, 2-(1-(Ethylsulfonyl)-3-(4-(6-methyl-2-(phenylamino)thieno[3,2-d]pyrimidin-4-yl)-1H-pyrazol-1-yl)azetidin-3-yl)acetonitrile] | > 1000 | > 1000 | > 1000 |
| CCCCOC(=O)CCn1cc(Nc2nc(-c3cnn(C4(CC#N)CN(S(=O)(=O)CC)C4)c3)c3sccc3n2)cn1 [Compound T-34, Butyl 3-(4-((4-(1-(3-(cyanomethyl)-1-(ethylsulfonyl)azetidin-3-yl)-1H-pyrazol-4-yl)thieno[3,2-d]pyrimidin-2-yl)amino)-1H-pyrazol-1-yl)propanoate] | 50 to 500 | < 50 | 50 to 500 |
| CCS(=O)(=O)N1CC(CC#N)(n2cc(-c3nc(Nc4ccc(S(C)(=O)=O)cc4)nc4ccsc34)cn2)C1 [Compound T-12, 2-(1-(Ethylsulfonyl)-3-(4-(2-((4-(methylsulfonyl)phenyl)amino)thieno[3,2-d]pyrimidin-4-yl)-1H-pyrazol-1-yl)azetidin-3-yl)acetonitrile] | < 50 | < 50 | 50 to 500 |
| CCS(=O)(=O)N1CC(CC#N)(n2cc(-c3nc(Nc4ccccc4)nc4ccoc34)cn2)C1 [Compound T-30, 2-(1-(Ethylsulfonyl)-3-(4-(2-(phenylamino)furo[3,2-d]pyrimidin-4-yl)-1H-pyrazol-1-yl)azetidin-3-yl)acetonitrile] | 50 to 500 | < 50 | 50 to 500 |
| CCS(=O)(=O)N1CC(CC#N)(n2cc(-c3nc(Nc4cnn(CCC#N)c4)nc4ccsc34)cn2)C1 [Compound T-71, 3-(4-((4-(1-(3-(Cyanomethyl)-1-(ethylsulfonyl)azetidin-3-yl)-1H-pyrazol-4-yl)thieno[3,2-d]pyrimidin-2-yl)amino)-1H-pyrazol-1-yl)propanenitrile] | < 50 | < 50 | < 50 |
| CCS(=O)(=O)N1CC(CC#N)(n2cc(-c3nc(Nc4cnn(C(C)=O)c4)nc4ccsc34)cn2)C1 [Compound T-52, 2-(3-(4-(2-((1-Acetyl-1H-pyrazol-4-yl)amino)thieno[3,2-d]pyrimidin-4-yl)-1H-pyrazol-1-yl)-1-(ethylsulfonyl)azetidin-3-yl)acetonitrile] | < 50 | < 50 | 50 to 500 |
| CCS(=O)(=O)N1CC(CC#N)(n2cc(-c3nc(Nc4cnn(C5COC5)c4)nc4ccsc34)cn2)C1 [Compound T-39, 2-(1-(Ethylsulfonyl)-3-(4-(2-((1-(oxetan-3-yl)-1H-pyrazol-4-yl)amino)thieno[3,2-d]pyrimidin-4-yl)-1H-pyrazol-1-yl)azetidin-3-yl)acetonitrile] | 50 to 500 | < 50 | < 50 |
| CCS(=O)(=O)N1CC(CC#N)(n2cc(-c3nc(Nc4cnn(CCN5CCOCC5)c4)nc4ccsc34)cn2)C1 [Compound T-53, 2-(1-(Ethylsulfonyl)-3-(4-(2-((1-(2-morpholinoethyl)-1H-pyrazol-4-yl)amino)thieno[3,2-d]pyrimidin-4-yl)-1H-pyrazol-1-yl)azetidin-3-yl)acetonitrile] | 50 to 500 | < 50 | < 50 |
| CCS(=O)(=O)N1CC(CC#N)(n2cc(-c3nc(NC4CC4)nc4ccsc34)cn2)C1 [Compound T-28, 2-(3-(4-(2-(Cyclopropylamino)thieno[3,2-d]pyrimidin-4-yl)-1H-pyrazol-1-yl)-1-(ethylsulfonyl)azetidin-3-yl)acetonitrile] | > 1000 | > 1000 | > 1000 |
| C[C@H](CO)n1cc(Nc2nc(-c3cnn(C4(CC#N)CN(S(C)(=O)=O)C4)c3)c3sccc3n2)cn1 [Compound T-84, (R)-2-(3-(4-(2-((1-(1-Hydroxypropan-2-yl)-1H-pyrazol-4-yl)amino)thieno[3,2-d]pyrimidin-4-yl)-1H-pyrazol-1-yl)-1-(methylsulfonyl)azetidin-3-yl)acetonitrile] | < 50 | < 50 | < 50 |
| CCS(=O)(=O)N1CC(CC#N)(n2cc(-c3nc(Nc4cccnc4)nc4ccsc34)cn2)C1 [Compound T-26, 2-(1-(Ethylsulfonyl)-3-(4-(2-(pyridin-3-ylamino)thieno[3,2-d]pyrimidin-4-yl)-1-pyrazol-1-yl)azetidin-3-yl)acetonitrile] | < 50 | < 50 | 50 to 500 |
| CCS(=O)(=O)N1CC(CC#N)(n2cc(-c3nc(Nc4cnn(C)c4)nc4ccsc34)cn2)C1 [Compound T-15, 2-(1-(Ethylsulfonyl)-3-(4-(2-((1-methyl-1H-pyrazol-4-yl)amino)thieno[3,2-d]pyrimidin-4-yl)-1H-pyrazol-1-yl)azetidin-3-yl)acetonitrile] | < 50 | < 50 | 50 to 500 |
| CCS(=O)(=O)N1CC(CC#N)(n2cc(-c3nc(Nc4ccc(-c5nn[nH]n5)cc4)nc4ccsc34)cn2)C1 [Compound T-45, 2-(3-(4-(2-((4-(2H-Tetrazol-5-yl)phenyl)amino)thieno[3,2-d]pyrimidin-4-yl)-1H-pyrazol-1-yl)-1-(ethylsulfonyl)azetidin-3-yl)acetonitrile] | < 50 | < 50 | 50 to 500 |
| CCS(=O)(=O)N1CC(CC#N)(n2cc(-c3nc(Nc4cnn(C5CN(C)C5)c4)nc4ccsc34)cn2)C1 [Compound T-54, 2-(1-(Ethylsulfonyl)-3-(4-(2-((1-(1-methylazetidin-3-yl)-1H-pyrazol-4-yl)amino)thieno[3,2-d]pyrimidin-4-yl)-1H-pyrazol-1-yl)azetidin-3-yl)acetonitrile] | 50 to 500 | < 50 | 50 to 500 |
| CCS(=O)(=O)N1CC(CC#N)(n2cc(-c3nc(Nc4cnn(CCCN5CCN(C)CC5)c4)nc4ccsc34)cn2)C1 [Compound T-67, 2-(1-(Ethylsulfonyl)-3-(4-(2-((1-(3-(4-methylpiperazin-1-yl)propyl)-1H-pyrazol-4-yl)amino)thieno[3,2-d]pyrimidin-4-yl)-1H-pyrazol-1-yl)azetidin-3-yl)acetonitrile] | 50 to 500 | < 50 | < 50 |
